From ChEMBL document CHEMBL1201862, “PubChem BioAssay data set” (2004)
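Cells were grown in 96-well plates and exposed to each compound for 48 hours at five concentrations; endpoints were interpolated linearly between bracketing concentrations, or set to the highest concentration if not reached. Here, GI50 denotes the concentration required for 50% inhibition of growth.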 Calls of active or inactive are those of the source. Rule as the data show it: active = GI50 up to about 1.1 µM and inactive = higher.

What was measured:
Assay in all cases: NCI tumour cell line growth inhibition, 48 h
[1] = test system: NCI-H226
[2] = test system: KM-20L2
[3] = test system: HT-29
[4] = test system: DMS-273
[5] = test system: SR
[6] = test system: HOP-92
[7] = test system: M19-MEL
[8] = test system: IGROV-1
[9] = test system: HCC 2998
[10] = test system: OVCAR-8
[11] = test system: SNB-19
[12] = test system: COLO 205
[13] = test system: DLD-1
[14] = test system: SF-539
[15] = test system: TK-10

Measured: GI50

O=C(CCC(=O)Nc1ccccc1C(F)(F)F)N/N=C1\C(=N\NC(=O)CCC(=O)Nc2ccccc2C(F)(F)F)C(c2ccc3c(c2)OCO3)Oc2ccccc21 (stereo not given)
inactive: [1] 10.6 µM | [2] 97.1 µM | [3] 35.9 µM | [4] 5.58 µM | [5] 3.59 µM | [6] 17.9 µM | [7] 18.4 µM | [8] 16.9 µM | [9] > 100 µM | [10] 7.87 µM | [11] 13.2 µM | [12] > 100 µM | [13] 5.04 µM | [14] 12 µM | [15] > 64.7 µM

CCCCCC1CC(C(C)=O)CN1c1ccc(F)cc1 (stereo not given)
inactive: [2] 35.3 µM | [3] 30.8 µM | [4] 35.6 µM | [5] > 10 µM | [6] 27.9 µM | [7] 39.7 µM | [9] 38.1 µM | [10] 32.3 µM | [11] > 10 µM | [12] 48.1 µM | [13] 32 µM | [14] > 100 µM | [15] 98.6 µM

O=C(Nc1cccc(C(F)(F)F)c1)C(=O)C(C(=O)c1ccc(Cl)c(Cl)c1)C1OC(=O)c2ccccc21 (stereo not given)
inactive: [1] 19.9 µM | [2] 39.4 µM | [3] 29.2 µM | [4] 33.9 µM | [5] 15.4 µM | [6] 26.8 µM | [7] 18.8 µM | [8] 39.6 µM | [9] 28.5 µM | [10] 26.5 µM | [11] 37.8 µM | [12] 41.2 µM | [13] 41.9 µM | [15] > 100 µM

COC1=CC(=O)c2ccccc2C1(C)C1=NC(C)(C)CO1 (stereo not given)
inactive: [1] > 100 µM | [2] > 100 µM | [3] > 100 µM | [4] > 100 µM | [5] > 100 µM | [6] > 100 µM | [7] > 100 µM | [8] > 100 µM | [10] > 100 µM | [11] > 100 µM | [12] > 100 µM | [13] > 100 µM | [14] > 100 µM | [15] > 100 µM

O=C(O)c1cc2c3c(c1)[C@H]1C=CC[C@H]1CN3CC1CC=CC21 (stereo not given in full)
inactive: [1] > 100 µM | [2] > 100 µM | [3] > 100 µM | [4] > 100 µM | [5] > 100 µM | [6] > 100 µM | [7] > 100 µM | [8] > 100 µM | [9] > 100 µM | [10] > 100 µM | [11] > 100 µM | [12] > 100 µM | [13] > 100 µM | [14] > 100 µM | [15] > 100 µM

Nc1nc(Cl)cc(NCCCCCCCCCCCCNc2cc(Cl)nc(N)n2)n1
inactive: [1] 15 µM | [2] 49.1 µM | [3] 10.5 µM | [4] 7.57 µM | [5] 1.99 µM | [6] 2.87 µM | [7] 11.8 µM | [8] 15.8 µM | [9] 38.5 µM | [10] 10.1 µM | [12] 19.9 µM | [13] 4.61 µM | [14] 15.2 µM | [15] 23.6 µM
